Source: EP2951180B1, “2,6,7,8 SUBSTITUTED PURINES AS HDM2 INHIBITORS” (Merck Sharp & Dohme Corp., priority 2013, dated 2014)

Each molecule was assayed against T1, HDM2 (Homo sapiens, UniProt Q00987) (assay: HDM2 FRET assay (inhibition of binding of FITC labeled p53-pocket peptide to HDM2)). Conditions: Table 18; read-out: FRET IC50.
T1 construct: Thioredoxin (N); made in house; host or cells: E. coli strain BL21(DE3)Rosetta
Outline: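 TR-FRET with 0.5 nM His-tagged recombinant HDM2, 3 nM FITC-labelled p53 peptide and 0.25 nM Tb-anti-His antibody in PBS, 0.01% BSA, 0.01% Tween-20, 0.1% DMSO. IC50 from em520/em495 ratio over 10-point dilutions, 4-parameter logistic fit.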

T1 sequence (Q00987 17-125): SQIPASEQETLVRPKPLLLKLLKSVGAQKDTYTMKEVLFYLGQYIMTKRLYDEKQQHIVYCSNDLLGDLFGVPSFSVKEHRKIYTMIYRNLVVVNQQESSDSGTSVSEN

SMILES	IC50
CC(C)c1ccnc(-c2nc3nc(-c4noc(=O)[nH]4)nc(N[C@H](C)C4CCC4)c3n2CC2CCC(C)(C)CC2)c1 [Example 18.9, (R)-3-(6-((1-cyclobutylethyl)amino)-7-((4,4-dimethylcyclohexyl)methyl)-8-(4-isopropylpyridin-2-yl)-7H-purin-2-yl)-1,2,4-oxadiazol-5(4H)-one]	394 nM
CC(C)c1ccnc(-c2nc3nc(C(=O)O)nc(N[C@H](C)C4CCC4)c3n2C[C@H]2CC[C@H](CF)CC2)c1 [Example 18.10, 6-(((R)-1-cyclobutylethyl)amino)-7-((trans-4-(fluoromethyl)cyclohexyl)methyl)-8-(4-isopropylpyridin-2-yl)-7H-purine-2-carboxylic acid]	9.38 nM
CC[C@H]1CC[C@H](Cn2c(-c3cccc(C)c3)nc3nc(C(=O)O)nc(N[C@H](C)C4CCC4)c32)CC1 [Example 18.15, 6-{[(1R)-1-cyclobutylethyl]amino}-7-[(trans-4-ethylcyclohexyl)methyl]-8-(3-methylphenyl)-7H-purine-2-carboxylic acid]	201 nM
CC[C@H]1CC[C@H](Cn2c(-c3cc(C)ccc3OC)nc3nc(C(=O)O)nc(N[C@H](C)C4CCC4)c32)CC1 [Example 18.16, 6-{[(1R)-1-cyclobutylethyl]amino}-7-[(trans-4-ethylcyclohexyl)methyl]-8-(2-methoxy-5-methylphenyl)-7H-purine-2-carboxylic acid]	31.8 nM
CC[C@H]1CC[C@H](Cn2c(N3CCCCC3)nc3nc(C(=O)O)nc(N[C@H](C)C4CCC4)c32)CC1 [Example 18.18, 6-{[(1R)-1-cyclobutylethyl]amino}-7-[(trans-4-ethylcyclohexyl)methyl]-8-piperidin-1-yl-7H-purine-2-carboxylic acid]	8.6 nM
CC[C@H]1CC[C@H](Cn2c(N3CCOCC3)nc3nc(C(=O)O)nc(N[C@H](C)C4CCC4)c32)CC1 [Example 18.19, 6-{[(1R)-1-cyclobutylethyl]amino}-7-[(trans-4-ethylcyclohexyl)methyl]-8-morpholin-4-yl-7H-purine-2-carboxylic acid]	13.1 nM
CC[C@H]1CC[C@H](Cn2c(-c3cc(C(C)C)ccn3)nc3nc(-c4noc(=O)[nH]4)nc(N[C@H](C)C4CCC4)c32)CC1 [Example 18.20, 3-(6-{[(1R)-1-cyclobutylethyl]amino}-7-[(trans-4-ethylcyclohexyl)methyl]-8-[4-(1-methylethyl)pyridin-2-yl]-7H-purin-2-yl)-1,2,4-oxadiazol-5(4H)-one]	15.7 nM
CC[C@H]1CC[C@H](Cn2c(N3CCOC[C@H]3c3ccccc3)nc3nc(C(=O)O)nc(N[C@H](C)C4CCC4)c32)CC1 [Example 18.21, 6-{[(1R)-1-cyclobutylethyl]amino}-7-[(trans-4-ethylcyclohexyl)methyl]-8-[(3R)-3-phenylmorpholin-4-yl]-7H-purine-2-carboxylic acid]	0.548 nM
CC[C@H]1CC[C@H](Cn2c(N3CCOC[C@H]3c3ccccc3)nc3nc(-c4noc(=O)[nH]4)nc(N[C@H](C)C4CCC4)c32)CC1 [Example 18.22, 3-(6-{[(1R)-1-cyclobutylethyl]amino}-7-[(trans-4-ethylcyclohexyl)methyl]-8-[(3R)-3-phenylmorpholin-4-yl]-7H-purin-2-yl)-1,2,4-oxadiazol-5(4H)-one]	3.86 nM
CCC1CC=C(Cn2c(-c3cc(C(C)C)ccn3)nc3nc(C(=O)O)nc(N[C@H](C)C4CCC4)c32)CC1 (stereo partly drawn) [Example 18.23, 6-{[(1R)-1-cyclobutylethyl]amino}-7-[(4-ethylcyclohex-1-en-1-yl)methyl]-8-[4-(1-methylethyl)pyridin-2-yl]-7H-purine-2-carboxylic acid]	26.4 nM
CCC1=CCC(Cn2c(-c3cc(C(C)C)ccn3)nc3nc(C(=O)O)nc(N[C@H](C)C4CCC4)c32)CC1 (stereo partly drawn) [Example 18.24, 6-{[(1R)-1-cyclobutylethyl]amino}-7-[(4-ethylcyclohex-3-en-1-yl)methyl]-8-[4-(1-methylethyl)pyridin-2-yl]-7H-purine-2-carboxylic acid]	15.9 nM
